Measured values: patent US20170000902A1, “EGFR-TARGETED NANOPARTICLES” (CALIFORNIA INSTITUTE OF TECHNOLOGY, priority 2014, published 2017)

System: EGFR mRNA
Assay: siEGFR knock down of EGFR mRNA expression
Type: cell-based
Settings: 50 picomolar concentration of siRNA; expression knocked down to this level
From the text: Nanoparticles were designed to specifically target EGFR-positive non-small cell lung cancer (NSCLC) cells and deliver siRNA to hinder EGFR expression. The nanoparticles have 4 primary components (see FIG. 1): • 1. A biocompatible cationic mucic acid polymer (cMAP) that encapsulates siRNA with a charge ratio (+/−) of 1; • 2. 5-nitrophenyl boronic acid-mPEG (5-nPBA-mPEG), which binds to cMAP through boronic acids' interaction with diols present on cMAP, to form a coating of methoxy-polyethylene glycol (mPEG) in order to ensure particle stability in serum; • 3. Cetuximab, the targeting agent for the particle, also attached to cMAP through a 5-nitrophenyl boronic acid-PEG entity; and • 4. siRNA against EGFR (siEGFR), able to knock down EGFR mRNA expression to 20% at a 50 picomolar concentration (see SEQ ID NO: 1). The resulting nanoparticles are cetuximab-conjugated cMAP-siEGFR nanoparticles.

## siEGFR: siRNA against EGFR, SEQ ID NO: 1 bound to SEQ ID NO: 2 (chain 1 UAAUUUCCAAAUUCCCAAGGAC; chain 2 CCUUGGGAAUUUGGAAAUUAUA; listed as RNA, chemistry not given here)
  EGFR mRNA expression after knock down: 20%
